Experimental data published in patent US8652444B2, “Oral compositions containing biphenol antibacterial compounds” (Colgate-Palmolive Company, priority 2004, dated 2014).
Converted amounts (≈) assume the structure as drawn.

Experiments:
Type in all cases: cell-based
[1] = tested on: certain oral bacteria; experiment: MIC50 against certain oral bacteria, comparison
Procedure: (§1) MIC50 values against a variety of bacteria are measured for the dipropyl and dibutyl derivatives and compared to those for triclosan.

[2] = tested on: P. intermedia; experiment: MIC50 against bacteria; conditions: unit assumed
Procedure: as §1

[3] = tested on: F. nucleatum; experiment: MIC50 against bacteria; conditions: unit assumed
Procedure: as §1

[4] = tested on: P. gingivalis; experiment: MIC50 against bacteria; conditions: unit assumed
Procedure: as §1

[5] = tested on: M. catarrhalis; experiment: MIC50 against bacteria; conditions: unit assumed
Procedure: as §1

[6] = tested on: S. aureus; experiment: MIC50 against bacteria; conditions: unit assumed
Procedure: as §1

[7] = tested on: S. mutans; experiment: MIC50 against bacteria; conditions: unit assumed
Procedure: as §1

[8] = tested on: P. nigresc.; experiment: MIC50 against bacteria; conditions: unit assumed
Procedure: as §1

[9] = tested on: S. gordonii; experiment: MIC50 against bacteria; conditions: unit assumed
Procedure: as §1

[10] = tested on: A. actino.; experiment: MIC50 against bacteria; conditions: unit assumed
Procedure: as §1

[11] = tested on: B. subtilis; experiment: MIC50 against bacteria; conditions: unit assumed
Procedure: as §1

[12] = tested on: B. cereus; experiment: MIC50 against bacteria; conditions: unit assumed
Procedure: as §1

[13] = tested on: E. corrodens; experiment: MIC50 against bacteria; conditions: unit assumed
Procedure: as §1

[14] = tested on: staphylococcus, streptococcus, and bacillus bacteria; experiment: MIC50 against a variety of bacteria, comparison; conditions: against a number of staphylococcus, streptococcus, and bacillus bacteria of Table I; comparable to triclosan
Procedure: as §1

SMILES	MIC50 relative to an analogous compound containing propyl groups [1]	MIC50 [2] [µg/mL]	MIC50 [3] [µg/mL]	MIC50 [4] [µg/mL]	MIC50 [5] [µg/mL]	MIC50 [6] [µg/mL]	MIC50 [7] [µg/mL]	MIC50 [8] [µg/mL]	MIC50 [9] [µg/mL]	MIC50 [10] [µg/mL]	MIC50 [11] [µg/mL]	MIC50 [12] [µg/mL]	MIC50 [13] [µg/mL]	MIC50 relative to the dipropyl derivative [14]
CCCCc1ccc(O)c(-c2cc(CCCC)ccc2O)c1 [dibutyl derivative, 5,5′-dibutyl-2,2′-dihydroxy-1,1′-biphenyl]	lower	2 (≈ 6.7 µM)	> 500	2 (≈ 6.7 µM)	15.6 (≈ 52.3 µM)	7.8 (≈ 26.1 µM)	3.9 (≈ 13.1 µM)	3.9 (≈ 13.1 µM)	31.3 (≈ 105 µM)	> 500	7.8 (≈ 26.1 µM)	31.3 (≈ 105 µM)	0.5 (≈ 1.68 µM)	over an order of magnitude less than that of the dipropyl derivative
CCCc1ccc(O)c(-c2cc(CCC)ccc2O)c1 [dipropyl derivative, 5,5′-propyl-2,2′-dihydroxy-1,1′-biphenyl]		2 (≈ 7.4 µM)	> 500	3.9 (≈ 14.4 µM)	7.8 (≈ 28.8 µM)	> 500	> 500	7.8 (≈ 28.8 µM)	> 500	> 500	> 500	> 500	1 (≈ 3.7 µM)	
Oc1cc(Cl)ccc1Oc1ccc(Cl)cc1Cl [triclosan]		1 (≈ 3.45 µM)	1 (≈ 3.45 µM)	0.5 (≈ 1.73 µM)	< 0.001	2 (≈ 6.91 µM)	7.8 (≈ 26.9 µM)	3.9 (≈ 13.5 µM)	7.8 (≈ 26.9 µM)	0.125 (≈ 0.432 µM)	2 (≈ 6.91 µM)	15.6 (≈ 53.9 µM)	< 0.001	
